From patent US6310037A, “Method of controlling protozoan infections using syringomycin-family lipodepsipeptides” (Utah State University, priority 1999, dated 2001) come the findings set out here.

One data set deals with C. parvum. Type of data set: cell-based, C. parvum (bovine isolate). The note with it: MDBK cells, day 2 post inoculation.
The subject of the next data set is BFTE cells. As to the kind of experiment: Toxic effect of Syr-E on BFTE host cells at pH 6.3 (neutral red assay, visual observation). Type of data set: cell-based, bovine. The protocol: Primary BFTE cell cultures were prepared from bovine fallopian tubes (FT). Fat was trimmed from the serosal surfaces, mucus was gently squeezed from the lumens, and FT were decontaminated by being submerged in 70% ethanol for 30 seconds. The FT were then transferred to sterile culture petri dishes containing HBSS and washed twice. The BFTE cells were harvested either by flushing the FT with HBSS, using a 10 ml syringe equipped with a mouse feeding needle, or by opening the FT lengthwise with scissors and scraping the mucosal surfaces. The BFTE cells were subsequently washed in HBSS by centrifugation at 200×g (force of gravity) for 10 minutes, planted in 75-cm^2 flasks containing RPMI 1640 and cultured in a 5% CO2 incubator at 37° C. for 72 to 120 hours. When the cell lines reached confluency, they were trypsinized, split, and planted onto cover slips positioned on the bottoms of individual wells in 24-well tissue culture plates. When cells reached 80% confluency, they were inoculated with either 10^5 oocysts or 4×10^5 sporozoites per well. Plates were then maintained at 37° C. in a candle jar environment (17% O2, 3% CO2, 80% N2). Growth medium was changed in each well every 72 hours. In wells inoculated with oocysts, the medium was first changed at 24 hours to remove any unexcysted oocysts.
Neutral red assay was used to measure viewable cell damage, such as obvious plaque forming and cell peeling. Briefly, 0.1 ml of neutral red was directly added to supernatant in each well of 96-well plates at the termination of the culture. Following 1-hr incubation at 37°C., the supernatant mixture from each well was discarded and cells at the bottom of the wells were rinsed twice with PBS. A volume of 0.2 ml/well extract buffer was added and the content in each well was well mixed prior to 30 min. incubation in the dark at 25°C. cytotoxicity was quantitatively read using a Microplate Autoreader (Bio-Tek Instruments, Inc., Winooski, Vt.) with a wavelength set at 540 nm.
Samples were collected on day 2 post inoculation. Each group consisted of both uninfected (empty bar) and C. parvum infected (solid bar) subgroups. In group 1, the medium pH was adjusted to 7.2, no Syr-E was used, and the cytotoxicity of the uninfected subgroup set to zero percent. Medium pH in groups 2-8 was adjusted to 6.3 and groups 3-8 received Syr-E treatments at 1, 2, 4, 8, 16, and 32 ,g/ml, respectively. Data are presented as the means +/- standard error of the mean. The cytotoxic effect increased from approximately 40% to 60% as Syr-E concentrations were elevated from 1 to 16 μg/ml, presenting a dose-dependent response. […] BFTE cells were 98% destroyed when Syr-E concentration reached 32 μg/ml at pH 6.3.

The next data set has as its system L. donovani. It counts as cell-based. To be noted: pH 5.5, 72 hours. As to the method:
L. donovani parasites (WHO designation: MHOM/SD/62/1S-CL2D) used in this study were originally donated by the National Institutes of Health. These parasites were maintained as axenic amastigote-like forms by serial passage at 37°C. in a humid atmosphere containing 5% CO2 using a slightly modified version of the medium described by Joshi et al., Cloning and characterization of differentially expressed genes from in vitro-grown `amastigotes` of Leishmania donovani. Molecular and Biochemical Parasitology, 1993. 58: p. 345-354, the contents of which are incorporated herein by this reference.
L. donovani amastigote-like forms were seeded at 10^6 cells/ml in 96-well flat-bottom plates (Costar) in the amastigote medium described above in the presence or absence of drugs. The final volume in each well was 60 μl. Wells containing control parasites included 1% DMSO, the maximum concentration of the vehicle found in drug-containing samples. Plates were incubated at 37° C. in a humid 5% CO2 atmosphere for 72 hours, then 12 μl of the aqueous CellTiter solution (Promega) was added to each well according to the instructions of the manufacturer. Plates were returned to the 37° C. incubator for a further 4-5 hours, then the absorbance of each well was measured at 490 nm using a SpectraMax Plus plate reader (Molecular Devices, Sunnyvale, Calif.). IC50 values for each of the drugs (the concentration of drug that inhibited the growth of parasites by 50% compared to controls) was determined with the aid of the program SoftMax Pro (Molecular Devices). The log dose response equation y=((a-d)/(1+(x/c)^b))+d was used to calculate IC50 values, where x=drug concentration, y=absorbance at 490 nm, a=upper asymptote, b=slope, c=IC50, and d=lower asymptote.
Activity of Syr-E against L. donovani was determined using a cell-free amastigote culture technique that included the uptake of a vital dye (Cell Titer solution, Promega Corporation) as a measure of parasite viability at 72 hours post inoculation. OD values for serial dilutions of Syr-E were transformed as described for the malaria screen (Example VII) to determine IC50 values against Leishmania. The amastigote assay was performed at a pH of 5.5, which is favorable for Syr-E activity.

Molecules are shown by their SMILES. Converted amounts (≈) assume the structure as drawn. Read-outs that look alike come from different tables or passages of the source. Where a SMILES comes first, the peptide text is derived from it. Bridges are numbered along the chain shown (N, C = ends). [ ]: non-standard residue; d: D form. The star is where a group is joined. Asp(3S-OH) = N[C@H](C(=O)O)[C@H](O)C(=O)O; Thr(4-Cl) = N[C@H](C(=O)O)[C@H](O)CCl; X1 = CCCCCCCCC[C@@H](O)CC(=O)*; dDab = NCC[C@@H](N)C(=O)O; Dab = NCC[C@H](N)C(=O)O; Dhb = C/C=C(\N)C(=O)O

`C/C=C1\NC(=O)[C@H](Cc2ccccc2)NC(=O)[C@H](CCCNC(=N)N)NC(=O)[C@H](CCN)NC(=O)[C@@H](CCN)NC(=O)[C@@H](CO)NC(=O)[C@@H](NC(=O)C[C@H](O)CCCCCCCCC)COC(=O)[C@H]([C@H](O)CCl)NC(=O)[C@H]([C@H](O)C(=O)O)NC1=O` [Syr-E, Syringomycin-E] (X1-S[dS][dDab][Dab]RF[Dhb][Asp(3S-OH)][Thr(4-Cl)]; ester 1-C): the “infection percentage compared to the untreated control” value in the data set with C. parvum (Syr-E 5.0 μg/ml) was “significantly (P<0.05) reduced the infection percentage”. The “inhibition of parasite growth and development” value in the data set on C. parvum (Syr-E 20 μg/ml) worked out at 99.5%. Also, the “cytotoxic effect (neutral red assay)” value is reported as “approximately 40%” in the data set with BFTE cells (Syr-E 1 μg/ml, BFTE cells, pH 6.3, day 2 post inoculation) and approximately 60% in the data set with BFTE cells (Syr-E 16 μg/ml, BFTE cells, pH 6.3, day 2 post inoculation). In addition, the “BFTE cells destroyed (neutral red assay)” value in the data set with BFTE cells (Syr-E 32 μg/ml, pH 6.3, day 2 post inoculation) is 98%. The visual cell damage result in the data set with BFTE cells (Syr-E 0.5-9.0 μg/ml, BFTE cells, pH 6.3) is listed as “Visual cell plaques were observed”. Further, the “OD Values” with L. donovani (Sample 1, Concentration 4.00000 (unit not given)) was found to be 0.099; in the data set with L. donovani (Sample 2, Concentration 2.00000 (unit not given)), 0.097; in the data set with L. donovani (Sample 3, Concentration 1.00000 (unit not given)), 0.090; in the data set on L. donovani (Sample 4, Concentration 0.50000 (unit not given)) it was 0.089; in the data set on L. donovani (Sample 5, Concentration 0.25000 (unit not given)), 0.090; in the data set with L. donovani (Sample 6, Concentration 0.12500 (unit not given)), 0.102. Further, the “OD Values” with L. donovani (Sample 7, Concentration 0.06250 (unit not given)) stood at 0.678; in the data set on L. donovani (Sample 8, Concentration 0.03125 (unit not given)), 0.664; with L. donovani (Sample 9, Concentration 0.01563 (unit not given)), 0.709; with L. donovani (Sample 10, Concentration 0.00781 (unit not given)), 0.652; in the data set on L. donovani (Sample 11, Concentration 0.00391 (unit not given)), 0.672. Also, in the data set with L. donovani (amastigote assay), the concentration for half-maximal inhibition (IC50) stood at 0.10115 µg/mL (≈ 0.0825 µM).
